Laboratory results from patent publication US11471674B2, “Electroosmotic convection-enhanced delivery system” (University of Pittsburgh—Of the Commonwealth System of …, priority 2012, dated 2022).

Tests used:
[1] = In vivo electrokinetic infusion via open tube catheter, volume of distribution; conditions: rat thalamus, 25.0 μA for 45 minutes
Protocol: Male Sprague-Dawley rats, with weights ranging from 260 to 290 g, were anesthetized with isoflurane, and wrapped in a 37° C. homeothermic blanket. An incisor bar was set at 0 mm at the interaural line. Rats underwent aseptic stereotactic surgery, whereby bilateral craniotomies were made to position an infusion catheter and counter catheter into the thalami bilaterally (from bregma: 4.0 mm lateral, 1.3 mm posterior, and 5.0 mm below the dura) for volumetric analysis. The capillaries were also implanted into the hippocampi bilaterally (from bregma: 4.0 mm lateral, 1.3 mm posterior, and 2.5 mm below the dura). […]
(§1) After the electrokinetic infusion period, the rats underwent rapid transcardial perfusion with 250 mL of 8% cold paraformaldehyde in PBS. […] Vibratome sectioning was quantitative, with no discarded tissue between slices with a visible fluorophore spot. […] The 300 μm thick coronal slices were mounted onto glass slides and imaged with an inverted fluorescence microscope. Image sequences were acquired and the fluorescent intensity was measured.
The volumes of distribution from the infusions were determined by evaluating the fluorescence intensities amongst the coronal tissue slices. The overall maximum fluorescence intensity (I0) at the infusion catheter implantation site was determined for each rat. […]

[2] = In vivo electrokinetic infusion via hollow fiber probe, volume of distribution; conditions: rat striatum, 25 μA, 45 minutes
Text: In the experiments described below, the distal end of the hollow fiber catheter was a hollow fiber having a 280 μm inside and 360 μm outside diameter, and a length of 3-4 mm (724). A 10- or 15-cm long fused silica catheter ([…] and 670 μm outside diameters, 720) directs fluid to the hollow fiber probe. The 100 μm inside diameter infusion catheter 720 was filled with the fluorophore solution of interest, as detailed below, in a glucose-free HEPES-buffered salt solution (GF-HBSS), containing in mM: 143.4 NaCl, 5 HEPES, 5.4 KCl, 1.2 MgSO4, 1.2 NaH2PO4, and 2.0 CaCl2. The probe was placed in a vial containing the same solution (704) through a septum. […]
as §1, with “phosphate buffer solution.” for “PBS.”, “200” for “300”, “microscope.” for “microscope. Image sequences were acquired and the fluorescent intensity was measured.”
The volumes of distribution from the infusions were determined by measuring the fluorescence intensities in each coronal slice. The fluorescent area in each image was determined by counting pixels above a threshold value dictated by the noise level in the background (nonfluorescent portion of the image). […]

[3] = Electrophoretic mobility of infusates; format: physicochemical; conditions: N = 3
Text: As noted above, three solutes of varying molecular weight and electrophoretic mobilities were utilized for in vivo infusions. BODIPY labeled 10 kDa dextran (B10) and TR70 were selected because of their dissimilar molecular weights, their ability to be resolved spectroscopically, and their small electrophoretic mobilities, as shown in Table 1 below (Vd at 10% of I0 calculated as in paragraph 25). The electrophoretic mobility is the ratio of the velocity that a molecule adopts in the presence of an electric field of a particular magnitude. For comparison, the electroosmotic mobility is the velocity that the fluid adopts in the presence of an electric field. The […] is directly proportional to the magnitude of the zeta potential governing the electroosmotic flow which we estimate to be −22.8 mV (Guy, Y. et al., “Determination of zeta-potential in rat organotypic hippocampal cultures.” Biophysical Journal, (2008) 94: 4561-9; Guy et al., “Determination of Zeta-Potential and Tortuosity in Rat Organotypic Hippocampal Cultures from Electroosmotic Velocity Measurements under Feedback Control.” Anal. Chem. (2009) 81:3001-7, both of which are hereby incorporated by reference). The electroosmotic mobility of the extracellular fluid in brain is 1.7×10^−8 m^2/Vs. This is much larger than the electrophoretic mobilities of the two fluorescent dextrans in Table 1. […]

[Ru+2].c1ccc(-c2ccccn2)nc1.c1ccc(-c2ccccn2)nc1.c1ccc(-c2ccccn2)nc1 [Ru(bpy)3^2+, tris(2,2′-bipyridyl)ruthenium(II)]
Vd at 10% of I0 ([1]; calculated): 260 µL
Vd at 25% of I0 ([1]; open tube catheter, mean±SEM): 13.0 ± 2.0 µL
volume of distribution (fluorescent volume) [2]: 9.0 µL
Electrophoretic Mobility (μep) [3]: 25.86 ± 0.02 10^−9 m^2/Vs
